Results taken from ChEMBL document CHEMBL3046325, “Synthesis, computational studies, and preliminary pharmacological evaluation of new arylpiperazines as potential antipsychotics” (Med Chem Res, 2012).

Assays:
[1] = tested on: Mus musculus; assay: Antipsychotic activity in ip dosed Mus musculus Swiss albino (mouse) assessed as inhibiton of 5-HTP-induced head twitches pretreated 30 min before 50 mg/kg, sc 5-HTP administration measured at 10 min intervals for 30 min, starting 20 min after 5-HTP challenge; assay type: functional
[2] = tested on: Mus musculus; assay: Antipsychotic activity in ip dosed Mus musculus Swiss albino (mouse) assessed as inhibition of […] -induced climbing behavior pretreated 10 min prior to 2.5 mg/kg, ip apomorphine administration measured at 5 min intervals for up to 20 min starting 10 min after apomorphine challenge; assay type: functional; details: route intraperitoneal
[3] = tested on: Mus musculus; assay: Induction of catalepsy in ip dosed Mus musculus albino (mouse) measured at 30 min interval until 120 min and at the end of 240 min; assay type: organism-based; details: in vivo

SMILES | ED50 [1] | ED50 [2] | ED50 [3]
CN1CCN(C2=Nc3cc(Cl)ccc3Nc3ccccc32)CC1 [CLOZAPINE] | 2.8 mg/kg | 8.7 mg/kg | 
COc1ccccc1N1CCN(CCCCOc2ccccc2C(N)=O)CC1 | > 40 mg/kg | 50.8 mg/kg | > 70 mg/kg
NC(=O)c1ccccc1OCCN1CCN(c2ccccc2)CC1 | 30 mg/kg | 35.3 mg/kg | 50 mg/kg
COc1cccc(N2CCN(CCOc3ccccc3C(N)=O)CC2)c1 | 25 mg/kg | > 40 mg/kg | > 80 mg/kg
COc1ccccc1N1CCN(CCCOc2ccccc2C(N)=O)CC1 | 18.2 mg/kg | 50 mg/kg | > 60 mg/kg
Cc1cccc(N2CCN(CCOc3ccccc3C(N)=O)CC2)c1 | > 20 mg/kg | 40 mg/kg | 70 mg/kg
COc1ccccc1N1CCN(CCOc2ccccc2C(N)=O)CC1 | 10 mg/kg | 40 mg/kg | 100 mg/kg
NC(=O)c1ccccc1OCCCN1CCN(c2ccccc2)CC1 | > 20 mg/kg | > 40 mg/kg | > 60 mg/kg
NC(=O)c1ccccc1OCCN1CCN(c2ccccc2Cl)CC1 | > 20 mg/kg | > 40 mg/kg | > 80 mg/kg
NC(=O)c1ccccc1OCCCCN1CCN(c2ccccc2)CC1 | > 40 mg/kg | > 40 mg/kg | > 60 mg/kg
Cc1ccc(N2CCN(CCOc3ccccc3C(N)=O)CC2)cc1 | 27.2 mg/kg | 40.5 mg/kg | > 80 mg/kg
